{
  "source": "patent US20230349922A1",
  "about": "“H2 Blockers Targeting Liver Macrophages for the Prevention and Treatment of Liver Disease and Cancer” (Université de Strasbourg, priority 2020, published 2023)",
  "key": {"[1]": {"test_system": "Huh7.5.1dif cells", "assay": "IL6 and TNFα expression by qRT-PCR in HCV-infected Huh7.5.1dif cells", "format": "cell-based, human", "description": "FIG. 8. The Huh7.5.1^dif Cell-Based System Recapitulates Transcriptional Dysregulations in Human Macrophages. (A-B) HRH2 knockdown leads to CREB5 downregulation in Huh7.5.1^dif cells similar to macrophages. Macrophages (A) and Huh7.5.1^dif cells (B) were transfected with siRNA CTRL or targeting HRH2 expression and activated using LPS+IFNγ or HCV-infection respectively. HRH2, CREB5 expression and the HCV viral load were analyzed by qRT-PCR. (Macrophage=three independent experiments n=8; Huh7.5.1^dif cells=two independent experiments n=6). (C) Nizatidine treatment decreases IL6 and TNF expression in Huh7.5.1^dif cells similar to macrophage. Huh7.5.1^dif cells were HCV infected and treated with nizatidine. IL6 and TNFα expression were analyzed by qRT-PCR. […]\nReal-Time qRT-PCR. cDNAs were synthetized by reverse transcription using SuperScript III First-Strand Synthesis SuperMix (Life Technologies). Expression of […] IL6, TNFα and IL1β was analyzed by quantitative real-time PCR using TaqMan Gene Expression Assays (Thermo Fisher Scientific) on the CFX96 Touch Real-Time PCR Detection System PCR system (Bio-Rad). Expression of human CCL2 and TGF was analyzed using iTaq™ Universal SYBR® Green Supermix (Bio-Rad). The 2^−ΔCT method was used for relative quantification (Schmittgen and Livak, Nature Protoc., 2008, 3: 1101-1108) of mRNA with normalization to 18S. […]"}, "[2]": {"test_system": "primary human hepatocytes (PHH)", "assay": "Cell viability of primary human hepatocytes in 3D culture", "format": "cell-based", "settings": "4 days after nizatidine treatment, compared to DMSO", "description": "FIG. 9. Proof-of-concept for Therapeutic Impact of Nizatidine in Patient-Derived HCC Spheroids. (A) Absent effect on cell viability in PHH, assessed 4 days after nizatidine treatment in 3D culture. […] (B) Nizatidine decreases HCC cell viability in a 3D patient-derived tumorspheroid model. HCC spheroids were generated from patient HCC tissues with different etiologies. Cell viability was assessed 4 days after treatment by measuring ATP levels. […] The pictures show representative image of patient-derived tumorspheroids (magnification X40). NASH=non-alcoholic steatohepatitis; ALD=alcoholic liver disease. Source data are provided as a Source Data file."}, "[3]": {"test_system": "HRH2/cAMP/PKA axis", "assay": "PLS assessment upon perturbation of the HRH2/cAMP/PKA axis in Huh7.5.1dif cells", "format": "cell-based, human", "settings": "histamine 10 μM + nizatidine 10 μM, 48 hours", "description": "Histamine, 8-CPT, cAMP and H89 Treatment. Huh7.5.1^dif cells were cultured in DMEM containing 1% FBS and 1% DMSO and incubated with histamine (10 μM) or histamine+nizatidine (10 μM) for 48 hours. Fresh medium containing histamine was replenished every 12 hours. For 8-CPT cAMP and H89, Huh7.5.1^dif cells cultured in DMEM 1% DMSO and 1% FBS were incubated with 8-CPT cAMP (100 μM), H89 (1 μM) or DMSO as a control for 48 hours. Fresh medium containing 8-CPT cAMP was replenished every 12 hours.\nTranscriptomic Analysis and PLS Calculation. Gene expression profiling and the 32 gene PLS 32 profiling were performed using 250-500 ng total RNA by using either nCounter Digital Analyzer system (NanoString) or the HumanHT-12 beadarray (Illumina) for the time-course experiments. PLS gene expression was normalized according to 6 housekeeping gene expression using GenePattern genomic analysis toolkits (Hoshida, PLOS ONE, 2010, 5: e15543; Peck et al., Genome Biol., 2006, 7: R61; Reich et al., Nature Genet., 2006, 38: 500-501). Induction or suppression of PLS risk signature was determined as previously reported by using Gene Set Enrichment Analysis (GSEA), implemented in GenePattern genomic analysis toolkits (Hoshida, PLOS ONE, 2010, 5: e15543; Peck et al., Genome Biol., 2006, 7: R61; Reich et al., Nature Genet., 2006, 38: 500-501). PLS was always determined by using CTRL cells as references. Results are presented as simplified heatmaps showing the classification of PLS global status as poor or good prognosis and the significance of induction/suppression of PLS genes (log 10 of false discovery rate (FDR) values). For each experiment, heatmaps show: in the upper part: the classification of PLS global status as poor (orange) or good (green) prognosis, and in the bottom part: the significance of induction (red) or suppression (blue) of PLS poor- or good-prognosis genes. Global status corresponds to the difference between low risk- and high risk-gene expression. The statistic tests, normalized enrichment score (NES) and FDR values are provided for each PLS experiment (poor- and good-prognosis genes variation and global status) in the Source Data file."}, "[4]": {"test_system": "tumor associated macrophages (TAMs)", "assay": "IL6 expression in M1-polarized tumor associated macrophages from patient HCCs", "format": "cell-based, human", "settings": "patient-derived tumor macrophages", "description": "FIG. 5. Effect of Nizatidine and HRH2 KO on Cytokine Expression in a Cell Culture Model for M1 Macrophages. (A) Representative picture of differentiated macrophages. To generate macrophage-like cells (MO), THP-1 cells were treated with PMA for 24 hours. To generate M1-polarized THP-1 macrophages, THP-1 cells were treated with PMA plus LPS and IFNγ. M1-polarized THP-1 were treated with nizatidine for 48 hours. (B) Gene expression of different cytokines was measured by qRT-PCR. Results are expressed as mean+s.e.m from 3 independent experiments performed in triplicate. * denotes p<0.05; ** denotes p<0.01; *** denotes p<0.001. (C) Representative picture of M1 differentiated patient-derived Kupffer cells. To generate M1-polarized macrophages, patient Kupffer cells were treated with LPS and IFNγ. (D) Gene expression of different cytokines was measured by qRT-PCR. Results are expressed as mean+s.d. from one experiment performed in duplicate. (E) IL6 expression in M1-polarized tumor associated macrophages (TAMs) isolated from different patient HCCs and treated with nizatidine. Results are expressed as mean+/−SD from one experiment performed in triplicate or quadruplicate. […] KO efficacy was assessed at genetic level by T7 endonuclease assay. […] Right: Pro-inflammatory cytokines and markers expression were analyzed by qRT-PCR (mean+/−SD n=3, one representative experiment out of two is shown)."}, "[5]": {"settings": "patients, after a 300 mg oral dose; cited from earlier work"}},
  "data": [
    {"smiles": "CNC(=C[N+](=O)[O-])NCCSCc1csc(CN(C)C)n1", "note": "[Nizatidine, N-[2-[[[2-[(dimethylamino)methyl]-4-thizaolyl]methyl]thio]ethyl]-N′-methyl-2-nitro-1,1-ethene-diamine]", "values": [
      {"measurement": "IL6 expression", "setting": "[1]", "value": "decreased"},
      {"measurement": "TNFα expression", "setting": "[1]", "value": "decreased"},
      {"measurement": "PHH viability", "setting": "[2]", "value": "no effect"},
      {"measurement": "histamine-induced PLS poor-prognosis status", "setting": "[3]", "value": "reversal"},
      {"measurement": "pro-inflammatory cytokine expression (IL6)", "setting": "[4]", "value": "direct effect"},
      {"measurement": "plasma concentrations", "setting": "[5]", "value": "2000 to 4000", "unit": "nM"}
    ]}
  ]
}
